Assay results reported in ChEMBL document CHEMBL1201862, “PubChem BioAssay data set” (2004).
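Assay format: 96-well plates, 48-hour exposure. The concentration for 50% growth inhibition is given as GI50.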 The source made the active and inactive calls. Rule as the data show it: active = GI50 up to about 1.1 µM and inactive = higher.

What was measured:
Assay in all cases: DTP human tumour cell line panel, 48 h
SN12C = test system: SN12C
DU-145 = test system: DU-145
786-0 = test system: 786-0
MOLT-4 = test system: MOLT-4
UO-31 = test system: UO-31
HOP-92 = test system: HOP-92
T47D = test system: T47D
Malme-3M = test system: Malme-3M
RPMI-8226 = test system: RPMI-8226
A498 = test system: A498
KM12 = test system: KM12
SR = test system: SR
NCI-H23 = test system: NCI-H23
HCT-116 = test system: HCT-116
SNB-75 = test system: SNB-75
MDA-N = test system: MDA-N
M14 = test system: M14
OVCAR-4 = test system: OVCAR-4
CAKI-1 = test system: CAKI-1
SF-295 = test system: SF-295

Measured: GI50

CC(C)CCC1(O)O[C@H]2C[C@H]3[C@@H]4CCC5CC(=O)C=C[C@]5(C)[C@H]4CC[C@]3(C)[C@H]2[C@@H]1C (some centres not stated)
inactive: SN12C 14.4 µM | DU-145 14.7 µM | 786-0 12.3 µM | MOLT-4 2.56 µM | UO-31 16.6 µM | HOP-92 3.58 µM | T47D 12 µM | Malme-3M 14.9 µM | RPMI-8226 4.88 µM | A498 14.6 µM | KM12 11.8 µM | SR 8.36 µM | NCI-H23 4.26 µM | HCT-116 6.79 µM | SNB-75 14.3 µM | MDA-N 13.2 µM | M14 15.9 µM | OVCAR-4 11.9 µM | CAKI-1 14.5 µM | SF-295 11.7 µM

NC(=O)Cc1ncn(-c2ccccc2)n1
inactive: SN12C > 100 µM | DU-145 > 100 µM | 786-0 > 100 µM | MOLT-4 > 100 µM | UO-31 > 100 µM | HOP-92 > 100 µM | T47D > 100 µM | Malme-3M > 100 µM | RPMI-8226 > 100 µM | A498 > 100 µM | KM12 > 100 µM | SR > 100 µM | NCI-H23 > 100 µM | HCT-116 > 100 µM | SNB-75 > 100 µM | MDA-N > 100 µM | M14 > 100 µM | CAKI-1 > 100 µM | SF-295 > 100 µM

CCOC(=O)C(NC(=O)CC)(Nc1ccc(F)c(Cl)c1)C(F)(F)F (configuration not stated)
inactive: SN12C > 100 µM | DU-145 > 100 µM | 786-0 > 100 µM | MOLT-4 > 74.8 µM | UO-31 > 100 µM | HOP-92 > 100 µM | T47D > 100 µM | Malme-3M > 100 µM | RPMI-8226 > 63.2 µM | A498 > 100 µM | KM12 35.8 µM | SR > 45.6 µM | HCT-116 > 100 µM | SNB-75 > 100 µM | MDA-N > 100 µM | M14 40.5 µM | OVCAR-4 > 100 µM | CAKI-1 > 100 µM | SF-295 > 76.4 µM

CSc1c(C#N)c(O)nc(N)c1C(=O)Nc1ccc(Cl)cc1
inactive: SN12C 23.8 µM | DU-145 17.5 µM | 786-0 7.36 µM | MOLT-4 18.8 µM | UO-31 11.2 µM | HOP-92 21.7 µM | T47D 8.38 µM | Malme-3M 26.5 µM | RPMI-8226 11.2 µM | A498 16.6 µM | KM12 7.96 µM | SR > 69.2 µM | NCI-H23 16.8 µM | HCT-116 5.45 µM | SNB-75 37.8 µM | MDA-N 12 µM | M14 5.2 µM | OVCAR-4 31.4 µM | CAKI-1 12.6 µM | SF-295 11 µM

Cc1onc(-c2c(F)cccc2Cl)c1C(=O)N[C@@H]1C(=O)N2[C@@H]1SC(C)(C)[C@@H]2C(=O)O
inactive: SN12C > 100 µM | DU-145 > 100 µM | 786-0 > 100 µM | UO-31 24.5 µM | HOP-92 > 100 µM | T47D > 100 µM | Malme-3M > 100 µM | RPMI-8226 > 100 µM | A498 > 100 µM | KM12 > 100 µM | SR > 100 µM | NCI-H23 > 100 µM | HCT-116 > 100 µM | SNB-75 > 100 µM | MDA-N > 100 µM | M14 > 100 µM | OVCAR-4 > 100 µM | CAKI-1 > 100 µM | SF-295 > 100 µM
